Results taken from US7541363B2, “Microcrystal” (Kyowa Hakko Kirin Co., Ltd., priority 2003, dated 2009).

How the values were obtained:
[1] = Crystallinity by powder X-ray diffraction; format: physicochemical
Text: Although there is no particular limitation for the “microcrystal(s) of (E)-8-(3,4-dimethoxystyryl)-1,3-diethyl-7-methyl-3,7-dihydro-1H-purine-2,6-dione having an average particle size of less than 50 μm” (that is “microcrystal(s) of Compound 1”) of the present invention so far as it is the crystalline Compound 1 having an average particle size of less than 50 μm, among them microcrystal(s) having an average particle size of 0.5 to 20 μm is/are preferable. The “microcrystal(s) of Compound 1” having a crystallinity of 20% or more is/are more preferable. Among them, the “microcrystal(s) of Compound 1” having a crystallinity of 30% or more is/are still more preferable and the “microcrystal(s) of Compound 1” having a crystallinity of 40% or more is/are most preferable. Incidentally, the average particle size thereof can be measured by using, for example, a laser diffraction/scattering particle size distribution analyzer (e.g., Mastersizer 2000, Ver. 2.00J; manufactured by Malvern Instruments), an image analyzer (e.g., Luzex® AP; manufactured by Nileco) or the like, and can be calculated as the mean of the particle size distribution. The crystallinity thereof can be calculated by measuring the integral intensity of the diffraction peak at a specific angle of diffraction 2θ by using a powder X-ray diffractmeter (e.g., JDX 8030; manufactured by Nippon Denshi).
The crystallinity of Compound 1 in each Sample (hereinafter, may be just referred to as the crystallinity) was calculated by the following method after measuring the diffraction peak of each Sample by changing from 0° to 40° at the angle of diffraction 2θ by a powder X-ray diffractmeter.
A calibration curve used for the calculation of the relative crystallinity was prepared by measuring the integral intensity of the diffraction peak at angle of diffraction 2θ=about 16° using physical mixtures prepared in various ratios and then plotting the ratios of amounts of the “crystalline Compound 1” in the physical mixtures against the integral intensities of the diffraction peaks respectively.
An integral intensity of the diffraction peak of the sample at the angle of diffraction 2θ=about 16° was measured. An amount of the “crystalline Compound 1” in each sample was calculated from the measured integral intensity on the basis of the above-described calibration curve, and the relative crystallinity (%) of each sample was determined from the following formula as the ratio of the amount of “Compound 1” (“crystalline Compound 1” and “an amorphous Compound 1”) against the amount of the “crystalline Compound 1”. A crystallinity (%) was determined by a proportional calculation from the relative crystallinity (%) determined hereinabove and the crystallinity (87.2%) of the unpulverized “crystals of Compound 1”. Relative Crystallinity (%)=(Amount of the “crystalline Compound 1”/Amount of “Compound 1”)×100 <Method for Measurement of Photostability>

[2] = Comparison of absorption in oral administration (plasma concentration); format: in vivo, male rats of SD strain; conditions: male SD rats; for Cmax (maximum concentration in plasma): 0.3 mg/mL suspension in 0.5 w/v % methyl cellulose at 10 mL/kg, mean ± s.e.m., three rats
Method: Each of Crystal B (the average particle size of crystals: 181 μm) and Microcrystals B (the average particle size of crystals: 11 μm) obtained in Example 3 was suspended in a 0.5 w/v % aqueous solution of methyl cellulose to prepare a drug liquid (0.3 mg/mL) for administration. The resulting drug liquid was orally administered to male rats of SD strain (body weight: 209 to 233 g; Nippon Charles River) at the dose of 10 mL/kg. Blood of the rat (about 0.3 mL for each time) was sequentially collected from tail vein by using a heparin-treated capillary tube 0.25, 0.5, 1, 2, 4, 6, 8, 12 and 24 hour(s) after the administration. The resulting blood was centrifuged (1,950×g, 10 minutes, 4° C.) and plasma was separated. Concentration of “Compound 1” in the resulting plasma was measured by HPLC and mean value from three rats was calculated. Maximum concentration in plasma (Cmax), the area under the plasma curve of concentration-time curve between the administration and the point which can be determined quantitatively finally (AUC0-t) and the area under the plasma curve of concentration-time curve between the administration and infinitive time (AUC0-∞), of case in which each of Crystals B and Microcrystals B were orally administered to the rat, are shown in Table 2. Incidentally, conditions for the measurement by HPLC are as follows. Instrument for analysis: Series L-7000 (manufactured by Hitachi) Column: Ultron VX-ODS (φ4.6×150 mm) Column temperature: 30° C. Mobile phase: 10 mmol/L acetate buffer (pH 5.7)/acetonitrile=53/47 […] Detecting condition: UV 360 nm

[3] = double bond (vinylene) moiety apt to be isomerized; cited from earlier work
adenosine A2 receptor = conditions: cited from earlier work
[4] = Solubility in water at room temperature against elapsed time; format: physicochemical; conditions: 2 mg in water (200 mL) at room temperature
Method: By using Crystals A (the average particle size of crystals: 167 μm, 2 mg) and Microcrystals A (the particle size of microcrystals D100=8.7 μm, 2 mg) obtained in Example 2, the solubility of each of them in water (200 mL) at room temperature was measured.

[5] = Aggregation and dispersing property during steps for preparing pharmaceutical formulation; format: physicochemical
[6] = Photostability: residual ratio of Compound 1 after irradiation under a fluorescent lamp; format: physicochemical; conditions: no HPMC, unpulverized; about 5,000 lx fluorescent lamp, 8 hours
Method: Photostability of each sample was traced by measuring the residual ratio (%) of “Compound 1” in the sample according to the following method.
Transparent glass vials, in which the samples were weighed and filled, were stored at about 5,000 lx under a fluorescent lamp, and each sample was sampled 8 hours after the irradiation. The sampled sample was dissolved in a mixed solvent of water and acetonitrile (water:acetonitrile=60:40), and then the amount of “Compound 1” in the sample was determined quantitatively by using a high-performance liquid chromatography (HPLC). Amount of “Compound 1” before irradiation was defined as 100% and the amount of “Compound 1” after irradiation thereto was calculated as the residual ratio (%).
Conditions for the measurement by HPLC are as follows.
Instrument for analysis: Series LC-6 (manufactured by Shimadzu)
Column: Inertsil ODS-2 (φ6×150 mm)
Column temperature: 25° C.
Mobile phase: 50 mmol/L KH2PO4 (pH 6.1, KOH)/acetonitrile=60/40
Detecting condition: UV 248 nm

[7] = crystals synthesized by the prior-art process; cited from earlier work
[8] = drug substance crystals as obtained

**Q.** What does the source list for `CCn1c(=O)c2c(nc(/C=C/c3ccc(OC)c(OC)c3)n2C)n(CC)c1=O` [Microcrystals B, (E)-8-(3,4-dimethoxystyryl)-1,3-diethyl-7-methyl-3,7-dihydro-1H-purine-2,6-dione]?
**A.** crystallinity [1, 8]: 67.3%; Cmax (maximum concentration in plasma) [2]: 238 ± 4 ng/mL; absorption in oral administration ([2]; compared with Crystals B): better absorption in oral administration than Crystals B

**Q.** Which stability under light [3] does the source give for `CCn1c(=O)c2c(nc(/C=C/c3ccc(OC)c(OC)c3)n2C)n(CC)c1=O` [Compound 1, (E)-8-(3,4-dimethoxystyryl)-1,3-diethyl-7-methyl-3,7-dihydro-1H-purine-2,6-dione] here?
**A.** unstable particularly under light

**Q.** And the “adenosine A2 receptor antagonistic activity” value (adenosine A2 receptor)?
**A.** shows an adenosine A2 receptor antagonistic activity

**Q.** For `CCn1c(=O)c2c(nc(/C=C/c3ccc(OC)c(OC)c3)n2C)n(CC)c1=O` [Microcrystals A, (E)-8-(3,4-dimethoxystyryl)-1,3-diethyl-7-methyl-3,7-dihydro-1H-purine-2,6-dione], which crystallinity [1, 8] is on record?
**A.** 84.6%

**Q.** And the “solubility of Compound 1” value [4]?
**A.** good solubility

**Q.** What about the dissolving velocity ([4]; compared with Crystals A) of the same compound?
**A.** quick dissolving velocity as compared to Crystals A

**Q.** And the “aggregation of the crystals during steps for preparing pharmaceutical formulation” value [5]?
**A.** no phenomenon of aggregation

**Q.** And the dispersing property ([5]; compared with Crystals A)?
**A.** excellent dispersing property as compared to Crystals A

**Q.** With `CCn1c(=O)c2c(nc(/C=C/c3ccc(OC)c(OC)c3)n2C)n(CC)c1=O` [Crystals B, (E)-8-(3,4-dimethoxystyryl)-1,3-diethyl-7-methyl-3,7-dihydro-1H-purine-2,6-dione] as the compound, how does the crystallinity [1, 8] read?
**A.** 71.6%

**Q.** What about the “Cmax (maximum concentration in plasma)” value [2] of the same compound?
**A.** 72.6 ± 31.7 ng/mL

**Q.** With `CCn1c(=O)c2c(nc(/C=C/c3ccc(OC)c(OC)c3)n2C)n(CC)c1=O` [Unpulverized “Crystals of Compound 1”, (E)-8-(3,4-dimethoxystyryl)-1,3-diethyl-7-methyl-3,7-dihydro-1H-purine-2,6-dione] as the compound, how does the “Residual Rate of “Compound 1”” value [6] read?
**A.** 100.0%

**Q.** And the crystallinity [1, 8]?
**A.** 87.2%

**Q.** And the crystallinity ([1]; no HPMC, unpulverized)?
**A.** 87.2%

**Q.** And the solubility in water [7]?
**A.** low
